From patent publication US20040048849A1, “Cyclin-dependent kinase (cdk) and glycolene synthase kinase-3 (gsk-3) inhibitors” (priority 2000, published 2004) come the findings set out here.

The test deals with DU145 (human prostate cancer cells). In words: Antiproliferative activity, WST1 colorimetric test, DU145. The class given is cell-based. As to conditions: 96 hours treatment, 0 to 25 μM. How it is done:
Characterization of the Antiproliferative Activity:
By way of example, the effect of a treatment on two human cell lines Mia-Paca2 and DU145 by the compounds of Examples 1 to 33 described previously will be studied. The cell lines DU145 (human prostate cancer cells) and Mia-PaCa2 (human pancreas cancer cells) were acquired from the American Tissue Culture Collection (Rockville, Md., USA). The cells placed in 95 μl of Dulbecco's Modified Eagle's medium (Gibco-Brl, Cergy-Pontoise, France) completed with 10% foetal calf serum inactivated by heating (Gibco-Brl, Cergy-Pontoise, France), 100 units/l of penicillin and 100 μg/ml/l of streptomycin (Gibco-Brl, 10378-057, Cergy-Pontoise, France), and 2 mM of glutamine (Gibco-Brl, Cergy-Pontoise, France) were seeded on a 96-well plate on day 0. The cells were treated on day 1 for 96 hours with 5 μl of each of the compounds at concentrations increasing from 0 to 25 μM final concentration. At the end of this period, quantification of cell proliferation is evaluated by a colorimetric test based on the cleavage of the tetrazolium salt WST1 by the mitochondrial dehydrogenases in viable cells leading to the formation of formazan (Boehringer Mannheim, Meylan, France). These tests are carried out in duplicate with 8 determinations per concentration tested. […]

As to `CC[C@H](CO)Nc1nc(NCc2ccccc2)c2ncn(C(C)C)c2n1` [Roscovitine], the “antiproliferative activity regarding DU-145 cells” value is listed as “no antiproliferative activity”.
